Measured values taken from patent US9910031B2, “Compositions and methods for modulating c-Rel-dependent cytokine production” (Synta Pharmaceuticals Corporation, priority 2003, dated 2018).

What was measured:
NFκB = test: Gel-shift assay of NFκB binding to the IL-12 p40 promoter site, THP-1 nuclear extracts; type: cell-based, human; conditions: IFN-γ-primed, SAC-stimulated THP-1; 1 μM Compound 1 or 10 mM ASA
Experimental: Nuclear extracts were prepared from IFN-γ-primed THP-1 cells that had been treated with or without SAC and incubated in the presence or absence of 1 μM Compound 1 or 10 mM ASA. Isolation of nuclear extracts was accomplished by first suspending THP-1 cells in 20 volumes of buffer A containing 10 mM KCl, 10 mM HEPES (pH 7.9), 1 mM MgCl2, 1 mM dithiothreitol (DTT), 0.1% Nonidet p40 (NP-40), and 0.5 mM phenylmethylsulfonyl fluoride (PMSF) and then homogenizing and centrifuging at 10,000 rpm at 4° C. for 5 min. Nuclear pellets were then suspended in buffer C containing 400 mM NaCl, 20 mM HEPES pH 7.9), 15 mM MgCl2, 0.2 mM EDTA, 1 mM DTT, 25% glycerol, 1 mM PMSF, and 10 μg of leupeptin, 20 μg of pepstatin, and 10 μg of antipain per ml, incubated for 30 min at 4° C., and centrifuge at 14,000 rpm for […]. The supernatants were dialyzed against buffer D containing 100 mM NaCl, 20 mM HEPES (pH 7.9), 20% glycerol, 1 mM PMSF, and 1 mM DTT.
The extracts obtained from this process were used in gel-shift assays using oligonucleotides containing the NFκB target sequence corresponding to the region −121 to −102 from the transcription initiation site of IL-12 p40 or a mutated NFκB binding site. […] This interaction was specific as it was competed away by an excess of unlabeled probe, but not by a mutated oligonucleotide in which two base-pairs were substituted. […]

IL-12 p70 = test: Inhibition of production of IL-12 p70 protein; type: cell-based, human; conditions: 1 μM Compound 1; 10 mM ASA
Experimental: Cells were co-transfected with the vector pCMV (BD Biosciences Clontech) in which the constitutively active CMV promoter directs β-galactosidase expression for the monitoring of transfection efficiency. Luciferase and β-galactosidase activity were determined in cell extracts prepared according to the Luciferase assay system (Promega) and Luminescent n-gal Detection system (BD Biosciences Clontech). Luciferase activity was then normalized using the β-galactosidase value. […] ELISA was performed by the following method. Human IL-12 p70 (heterodimer) was assayed using ELI-PAIR kit from Cell Sciences (Norwood, Mass.), according to the manufacturer's instructions. Human IL-12 p40 was assayed using ELISA kit from Cell Sciences (Norwood, Mass.) according to the manufacturer's instructions.
The extracts obtained from this process were used in gel-shift assays using oligonucleotides containing the NFκB target sequence corresponding to the region −121 to −102 from the transcription initiation site of IL-12 p40 or a mutated NFκB binding site. […] This interaction was specific as it was competed away by an excess of unlabeled probe, but not by a mutated oligonucleotide in which two base-pairs were substituted. […] This is expected since a compound that potently blocks NFkB have a far broader cytokine inhibitory profile than Compound 1/Compound 2.

NFκB binding to p40 promoter probe (gel shift) (NFκB): reduced the binding significantly
Structure (SMILES): CC(=O)Oc1ccccc1C(=O)O [ASA, reference compound]
percent inhibition of production of IL-12 p70 protein (IL-12 p70): 45%
